Test results published in US10471025B2, “Compositions for use in treating parkinson's disease and related disorders” (Technophage, Investigação E Desenvolvimento Em …, priority 2015, dated 2019).
Entries after “also recorded” stand apart in the source; their conditions may differ. Where a name gives a salt, the structure may show the parent alone. Read-outs that look alike come from different tables or passages of the source.

How the values were obtained:
6-OHDA mouse model [1] = test: Abnormal involuntary movements, 6-OHDA mice (Example 5); assay type: in vivo; conditions: 28 days post injection; 30 and 90 minutes after treatment
Method: This condition results in a range of involuntary movements that can be evaluated by video tracking analyses. […] Evaluations were performed during two independent trials, 30 and 90 minutes after treatment administration. […] Nonetheless, forelimb and orofacial involuntary movements are extremely hard to detect, and reading errors occur, considering the size of the animals. Total abnormal involuntary movements are the sum of all 4 different involuntary movements evaluated and is the parameter often reported in the literature.
As FIGS. 17A-17F show, abnormal involuntary movements were evaluated using the cylinder test 28 days post injection. […] Values mean ě SEM (n=5-8).

6-OHDA mouse model [2] = test: Rotarod test, unilateral striatal 6-OHDA mice (Example 5); assay type: in vivo
[3] = IV, rats; cited from earlier work
6-OHDA mouse model [4] = test: Abnormal involuntary movements (AIMs), 6-OHDA mice, ON/OFF L-Dopa study (Example 7)
Method: The unilateral striatal 6-OHDA mice model was used in this study. Specifically, 12 week old CD-1 male mice received an injection of 6-OHDA neurotoxin at the following coordinates: AP +0.9 mm, ML +2.0 mm, DV −3.2 mm, as in the Example outlined above. Animals were injected with 10 ? g of 6-OHDA or ascorbic acid (vehicle control) to induce the disease. Disease was induced for 7 days and treatment then was initiated at this time point.
The following parameters were evaluated: hyperkinetic and/or dystonic movements of the contralateral forelimb on the sagittal or frontal plane (forelimb involuntary movements; FIG. 29A), twisted posture of the neck and upper body towards the side contralateral to the lesion (upper body involuntary movements; FIG. 29B), twitching of orofacial muscles, empty jaw movements and contralateral tongue protrusion (orofacial involuntary movements; FIG. 29C), circular locomotion with contralateral side bias (circular involuntary movements; FIG. 29D), total involuntary movements (FIG. 29E), and total involuntary movement along the different timepoints (FIG. 29F). […] Total abnormal involuntary movements (FIGS. […]) were the sum of all 4 different involuntary movements evaluated.
The same parameters were analyzed as for 20 days post injection (dpi).

[5] = cited from earlier work; for Bioavailability: 86 mg
healthy wild type mice = test: Toxicity assay, open field test in healthy wild type mice (Example 6); assay type: in vivo, mouse; conditions: 1 h after i.p.; tapentadol C1 8.3 mg/kg in combination with L-Dopa 18 mg/kg
Excerpt: Necropsy was done after cervical dislocation. […] Saline was given to the control group.

rabbit = conditions: oral administration; cited from earlier work
[6] = chronic dosing; cited from earlier work
[7] = after a high-fat, high-calorie breakfast

CC[C@@H](c1cccc(O)c1)[C@@H](C)CN(C)C [tapentadol, tapentadol hydrochloride]
Induction of abnormal involuntary movements (6-OHDA mouse model [1]): None of the treatments, tapentadol or stavudine of the combination, induced involuntary movements
Rotarod: latency to fall and speed, recovery (6-OHDA mouse model [2]; C1 2.8 mg/kg/day i.p., 8 and 15 days post lesion): best recovery between groups, although not significant
Rotarod: latency to fall and speed, recovery (6-OHDA mouse model [2]; daily i.p., dosages tested (C1 and C2)): behavioral recovery over time
Dose with suspected proconvulsion effect [3]: 6 mg/kg
Induction of abnormal involuntary movements (6-OHDA mouse model [4]; L-Dopa treated groups vs tapentadol hydrochloride alone): did not; also recorded: does not induce AIMs
Effect on L-Dopa induced AIMs / dyskinesia (6-OHDA mouse model [4]; concomitant administration with L-Dopa, hydrochloride): not reverted; also recorded: did not revert L-Dopa induced AIMs; also recorded: did not increase dyskinesia
Conjugated form among related compounds excreted in the urine ([5]; 100 mg radiolabelled oral dose): 69%
Drug recovered in 5 days ([5]; 100 mg radiolabelled oral dose): 99.9%
Excreted via urine ([5]; 100 mg radiolabelled oral dose): 99%
Exposure to the conjugates, of the total ([5]; 100 mg radiolabelled oral dose): approximately 64%
Other forms of metabolites among related compounds excreted in the urine ([5]; 100 mg radiolabelled oral dose): 27%
Parent drug among related compounds excreted in the urine ([5]; 100 mg radiolabelled oral dose): 3%
Total dose excreted within 24 hours ([5]; 100 mg radiolabelled oral dose): 95%
Total drug excreted in the feces ([5]; 100 mg radiolabelled oral dose): Approximately 1%
Cmax ([5]; ER): 22.5 ng/mL
Cmax ([5]; IR): 64.2 ng/mL
Tmax ([5]; IR): 1.5 h
Increase of AUC with food [5, 7]: 25%
Increase of Cmax with food [5, 7]: 16%
Elimination half-life ([5]; after oral administration): 4 h
Metabolized to N-desmethyl tapentadol ([5]; by CY P2C9 and CY P2C19): 13%
Metabolized to hydroxy tapentadol ([5]; by CY P2D6): 2%
Bioavailability ([5]; extended release (ER)): 32%
Lower mean Cmax in elderly vs young adult subjects ([5]; geriatric patients): 16%
Parent compound metabolized ([5]; humans): about 97%
Bioavailability ([5]; immediate release (IR)): 32%
Drug excreted in urine as unchanged drug ([5]; in vivo): 3%
Excretion via the kidneys (tapentadol and its metabolites) ([5]; in vivo): 99%
Total clearance ([5]; in vivo): 1530 ± 177 mL/min
Volume of distribution (Vz) ([5]; intravenous administration, hydrochloride): 540 ± 98 L
AUC ratio vs normal hepatic function ([5]; mild hepatic impairment (Child-Pugh Score 5 to 6)): 1.7
Cmax ratio vs normal hepatic function ([5]; mild hepatic impairment): 1.4
t1/2 ratio vs normal hepatic function ([5]; mild hepatic impairment): 1.2
AUC ratio vs normal hepatic function ([5]; moderate hepatic impairment (Child-Pugh Score 7 to 9)): 4.2
Cmax ratio vs normal hepatic function ([5]; moderate hepatic impairment): 2.5
t1/2 ratio vs normal hepatic function ([5]; moderate hepatic impairment): 1.4
Mean accumulation factor ([5]; multiple (every 6 hour) dose study, 75 to 175 mg tapentadol): 1.6
Time of maximum serum concentrations after dosing ([5]; oral): around 1.25 hours
Mean absolute bioavailability ([5]; single-dose administration (fasting)): approximately 32%
Dose excreted as O-glucuronide ([5]; urine): 55%
Dose excreted as sulfate of tapentadol ([5]; urine): 15%
Open field behavior (velocity, distance, time resting/moving) (healthy wild type mice): slightly different behavior in three out of the four parameters analyzed
LD50 (rabbit): 3,200 mg/kg
Hepatic hypertrophy [6]: present in all animal species
